Measured values: the supplement of paper PMC10331698
± gives the standard deviation of the averaged measurements.

Experiments:
Test in all cases: LOEC (log10 uM (lowest observed effect concentration))
[1] = compound: NS(=O)(=O)C(F)(F)C(F)(F)C(F)(F)C(F)(F)C(F)(F)C(F)(F)C(F)(F)C(F)(F)F [Perfluorooctanesulfonamide]
Protocol: (§1)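 BioMAP Diversity Plus panel in human primary cell co-cultures, 4 concentrations in duplicate blinded samples. Responses are log10 fold change versus DMSO control, processed with tcpl v2.1.0. A hit is called when responses at any concentration exceed the cutoff (the larger of 3*bmad or log10(1.2)); the lowest observed effect concentration (modl_ga, log10 uM) is reported for hits.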

[2] = compound: O=C(O)C(F)(F)OC(F)(F)C(F)(F)OC(F)(F)C(F)(F)OC(F)(F)C(F)(F)C(F)(F)C(F)(F)F [Perfluoro-3,6,9-trioxatridecanoic acid]
Protocol: as §1

[3] = compound: O=C(O)C=C(C(F)(F)F)C(F)(F)F [3,3-Bis(trifluoromethyl)-2-propenoic acid]
Protocol: as §1

Perfluorononanoic acid = compound: O=C(O)C(F)(F)C(F)(F)C(F)(F)C(F)(F)C(F)(F)C(F)(F)C(F)(F)C(F)(F)F [Perfluorononanoic acid]
Protocol: as §1

[4] = compound: CCNS(=O)(=O)C(F)(F)C(F)(F)C(F)(F)C(F)(F)C(F)(F)C(F)(F)C(F)(F)C(F)(F)F [N-Ethylperfluorooctanesulfonamide]
Protocol: as §1

Perfluoroundecanoic acid = compound: O=C(O)C(F)(F)C(F)(F)C(F)(F)C(F)(F)C(F)(F)C(F)(F)C(F)(F)C(F)(F)C(F)(F)C(F)(F)F [Perfluoroundecanoic acid]
Protocol: as §1

Row | Test System | LOEC (log10 uM) [1] | LOEC (log10 uM) [2] | LOEC (log10 uM) [3] | LOEC (log10 uM) (Perfluorononanoic acid) | LOEC (log10 uM) [4] | LOEC (log10 uM) (Perfluoroundecanoic acid)
1 | 3C Eselectin down | 1.78 | 1.78 | 1.3 | – | – | –
2 | 3C ICAM1 down | 1.78 | 1.78 | – | – | – | –
3 | 3C IL8 down | – | 1.3 | – | – | – | –
4 | 3C MCP1 down | 1.78 | 1.78 | – | 1.78 | – | –
5 | 3C MIG down | 1.78 | 1.78 | – | – | – | –
6 | 3C SRB down | 1.3 | 1.3 | – | 1.78 | 1.78 | –
7 | 3C Thrombomodulin up | 1.3 | – | – | – | – | –
8 | 3C TissueFactor down | 1.78 | 1.3 | – | 1.78 | – | –
9 | 3C uPAR down | 1.78 | 1.54 ± 0.34 | – | 1.78 | – | –
10 | 4H SRB down | 1.3 | 1.78 | – | 1.78 | 1.78 | –
11 | 4H VEGFRII down | – | – | – | – | 1.78 | –
12 | 4H uPAR down | 1.78 | 1.78 | – | – | – | –
13 | BE3C EGFR down | 1.78 | – | – | – | 1.54 ± 0.34 | 0.845
14 | BE3C ICAM1 down | 1.78 | 0.845 | – | 1.78 | – | 0.845
15 | BE3C IL1a down | 1.78 | 0.845 | – | 1.78 | 1.78 | 0.845
16 | BE3C ITAC down | 1.3 | 0.845 | – | 1.78 | 1.3 | 0.301
17 | BE3C Keratin818 down | 1.78 | 0.845 | – | 1.78 | 0.845 | 0.845
18 | BE3C MIG down | 1.78 | 0.845 | – | 1.78 | 1.78 | 0.845
19 | BE3C MMP9 down | 0.845 | 0.845 | – | 1.78 | 0.845 | -0.199 ± 0.71
20 | BE3C PAI1 down | 0.845 | 0.573 ± 0.39 | – | 1.54 ± 0.34 | 0.845 | -0.199 ± 0.71
21 | BE3C SRB down | 1.78 | 0.845 | – | 1.78 | 1.78 | 0.845
22 | BE3C uPA down | 1.78 | 0.845 | – | 1.31 ± 0.66 | – | 0.845

Row | Test System | LOEC (log10 uM) [1] | LOEC (log10 uM) [2] | LOEC (log10 uM) [3] | LOEC (log10 uM) (Perfluorononanoic acid) | LOEC (log10 uM) [4] | LOEC (log10 uM) (Perfluoroundecanoic acid)
23 | BE3C uPAR down | 1.78 | 0.845 | – | 1.78 | 1.3 | 0.845
24 | BF4T CD90 down | 1.78 | 1.3 | – | – | – | –
25 | BF4T ICAM1 down | 1.54 ± 0.34 | 1.07 ± 0.32 | – | 1.78 | 1.78 | 0.845
26 | BF4T IL1a down | 1.78 | 1.3 | – | 1.78 | 1.78 | 0.845
27 | BF4T IL8 down | 1.78 | – | – | 1.78 | – | –
28 | BF4T Keratin818 down | 1.54 ± 0.34 | 1.3 | – | 1.78 | 1.54 ± 0.34 | 0.845
29 | BF4T MMP1 down | – | 1.3 | – | 1.78 | 1.78 | 0.845
30 | BF4T MMP3 down | 1.78 | 1.07 ± 0.32 | – | 1.78 | – | 0.845
31 | BF4T MMP9 down | 1.3 | 1.07 ± 0.32 | – | 1.78 | 1.54 ± 0.34 | 0.845
32 | BF4T PAI1 down | 1.78 | 1.3 | – | 1.78 | – | 0.845
33 | BF4T SRB down | 1.78 | 1.3 | – | 1.78 | 1.78 | 0.845
34 | BF4T VCAM1 down | 1.3 | 0.845 | – | 1.07 ± 0.32 | 0.845 | 0.845
35 | BF4T uPA down | 1.78 | 1.3 | – | 1.78 | – | 0.845
36 | BT Bcell Proliferation down | – | – | 1.78 | – | – | –
37 | BT Bcell Proliferation up | – | – | – | 1.78 | – | –
38 | CASM3C HLADR down | – | – | 0.573 ± 0.39 | – | – | –
39 | CASM3C LDLR down | 1.78 | 1.78 | – | – | – | –
40 | CASM3C SRB down | 1.78 | 1.78 | – | – | – | –
41 | CASM3C uPAR down | 1.78 | – | – | – | – | –
42 | IMphg IL1a down | – | 1.54 ± 0.34 | – | – | – | –
43 | IMphg SRB down | 1.78 | 1.78 | – | – | – | –
44 | IMphg SRB.Mphg down | 1.78 | 1.78 | – | – | – | –

Row | Test System | LOEC (log10 uM) [1] | LOEC (log10 uM) [2] | LOEC (log10 uM) [3] | LOEC (log10 uM) (Perfluorononanoic acid) | LOEC (log10 uM) [4] | LOEC (log10 uM) (Perfluoroundecanoic acid)
45 | KF3CT ICAM1 down | 1.78 | 1.3 | – | – | – | 0.845
46 | KF3CT IL8 down | 1.78 | – | – | – | – | 0.845
47 | KF3CT IP10 down | 1.3 | 0.845 | – | 1.78 | 1.54 ± 0.34 | 0.845
48 | KF3CT MCP1 down | 1.78 | 0.845 | – | 0.801 ± 0.71 | – | 0.845
49 | KF3CT MIG down | 1.78 | 1.3 | – | – | – | 0.845
50 | KF3CT MMP9 down | 1.3 | 0.845 | – | 1.31 ± 0.66 | 1.3 | 0.301
51 | KF3CT PAI1 down | 1.54 ± 0.34 | 0.845 | – | 1.78 | 1.54 ± 0.34 | 0.301
52 | KF3CT SRB down | 1.78 | 1.3 | – | – | – | 0.845
53 | KF3CT TIMP2 down | 1.78 | 0.845 | – | – | 1.78 | 0.845
54 | KF3CT uPA down | 1.3 | 1.3 | – | – | 1.78 | 0.845
55 | LPS CD69 down | 1.3 | 1.78 | – | 1.78 | – | –
56 | LPS Eselectin down | 1.78 | 1.78 | – | – | – | –
57 | LPS IL8 down | 1.78 | 1.07 ± 0.32 | – | – | 1.78 | –
58 | LPS MCP1 down | 1.78 | 1.54 ± 0.34 | – | 1.78 | 1.78 | –
59 | LPS SRB down | 1.78 | 1.78 | – | 1.78 | 1.78 | –
60 | LPS TissueFactor down | 1.78 | 1.78 | – | – | – | –
61 | LPS TissueFactor up | – | – | – | – | 1.78 | –
62 | MyoF CollagenI down | 1.3 | 0.845 | – | 1.54 ± 0.34 | 1.78 | 0.301
63 | MyoF CollagenIII down | 1.3 | 0.845 | – | 1.78 | 1.78 | 0.301
64 | MyoF CollagenIV up | – | – | – | 1.3 | – | –
65 | MyoF Decorin down | – | 1.3 | – | – | 1.78 | 0.845
66 | MyoF IL8 down | 1.78 | 1.78 | – | – | 1.78 | 0.845

Row | Test System | LOEC (log10 uM) [1] | LOEC (log10 uM) [2] | LOEC (log10 uM) [3] | LOEC (log10 uM) (Perfluorononanoic acid) | LOEC (log10 uM) [4] | LOEC (log10 uM) (Perfluoroundecanoic acid)
67 | MyoF PAI1 down | 1.78 | 1.07 ± 0.32 | – | – | 1.78 | 0.845
68 | MyoF SRB down | 1.3 | 1.07 ± 0.32 | – | – | 1.78 | 0.845
69 | MyoF TIMP1 down | 1.78 | 1.3 | – | – | 1.3 | 0.573 ± 0.39
70 | MyoF bFGF down | 1.78 | 1.07 ± 0.32 | – | – | 1.78 | 0.845
71 | SAg CD38 down | 1.54 ± 0.34 | 1.78 | – | 1.78 | 1.78 | –
72 | SAg MCP1 down | 1.78 | 1.78 | – | 1.78 | 1.78 | –
73 | SAg MIG down | 1.78 | 1.78 | – | – | – | –
74 | SAg PBMCCytotoxicity down | 1.78 | 1.78 | – | – | – | –
75 | SAg SRB down | 1.78 | 1.78 | – | 1.78 | 1.78 | –
76 | hDFCGF CollagenI down | – | 1.54 ± 0.34 | – | – | 1.78 | 0.845
77 | hDFCGF CollagenIII down | 1.3 | 0.845 | – | – | 0.845 | 0.845
78 | hDFCGF EGFR down | – | – | – | – | – | 0.301
79 | hDFCGF ICAM1 down | 1.3 | 1.07 ± 0.32 | – | 1.78 | 1.54 ± 0.34 | 0.845
80 | hDFCGF IL8 down | 1.3 | 1.3 | – | – | 1.78 | 0.845
81 | hDFCGF PAI1 down | 1.3 | 0.845 | – | – | 1.54 ± 0.34 | 0.845
82 | hDFCGF SRB down | 1.78 | 0.845 | – | – | 1.54 ± 0.34 | 0.845
83 | hDFCGF TIMP1 down | – | 1.07 ± 0.32 | – | – | 1.78 | 0.845
84 | hDFCGF TIMP1 up | 1.78 | – | – | – | – | –
85 | hDFCGF TIMP2 down | – | 0.845 | – | – | 1.54 ± 0.34 | 0.845
